From ChEMBL document CHEMBL1136519, “Indole amide hydroxamic acids as potent inhibitors of histone deacetylases” (Bioorg Med Chem Lett, 2003)

Key:
[1] = target: Histone deacetylase (HDAC1 and HDAC2) (Homo sapiens, UniProt Q13547+Q92769); test: Inhibitory activity was tested against histone deacetylase (HDAC).; assay type: protein assay
HT-1080 = test: Antiproliferative activity against HT1080 (human fibrosarcoma) cell line.; assay type: functional, cell-based
MDA-MB-435 = test: cells; assay type: functional, cell-based; settings: Homo sapiens
Description: Antiproliferative activity against MDA-435 (human breast carcinoma) cell line.

Mus musculus [2] = test: Antitumor activity against HT1080 cell line in mouse xenograft model after orally dosed once every other day at 100 mg/kg; assay type: functional; settings: HT-1080, route oral
Mus musculus [3] = test: Antitumor activity against HT1080 cell line in mouse xenograft model after orally dosed once every other day at 30 mg/kg; assay type: functional; settings: HT-1080, route oral

SMILES | IC50 [1] | IC50 (HT-1080) | IC50 (MDA-MB-435) | inhibition in vivo at 100 mg/kg (Mus musculus [2]) | inhibition in vivo at 30 mg/kg (Mus musculus [3])
O=C(CCCCCCNC(=O)c1cc2cc(OC(F)(F)F)ccc2[nH]1)NO | 16 nM | 890 nM | 300 nM |  | 
COc1cccc2[nH]c(C(=O)NCCCCCCC(=O)NO)cc12 | 3.1 nM | 120 nM | 130 nM |  | 
COc1ccc2cc(C(=O)NCCCCCCC(=O)NO)[nH]c2c1 | 9.9 nM | 340 nM | 230 nM |  | 
O=C(CCCCCCNC(=O)c1cc2cc(Br)ccc2[nH]1)NO | 3.5 nM | 480 nM | 470 nM |  | 
O=C(CCCCCNC(=O)c1cccc2cc[nH]c12)NO | 37.6 nM |  |  |  | 
O=C(CCCCCCNC(=O)c1cn(-c2ccc(Br)cc2)c2ccccc12)NO | 18.9 nM | 490 nM | 340 nM |  | 
O=C(CCCCCCNC(=O)c1cc2cc(F)ccc2[nH]1)NO | 5.4 nM | 480 nM | 250 nM |  | 
O=C(CCCCCCNC(=O)c1cn(Cc2ccccc2)c2ccccc12)NO | 12 nM | 1900 nM | 850 nM |  | 
Cc1c(C(=O)NCCCCCCC(=O)NO)oc2ccccc12 | 12.5 nM |  |  |  | 
O=C(CCCCCCNC(=O)c1cccc2[nH]ccc12)NO | 80.3 nM |  |  |  | 
O=C(CCCCCCNC(=O)c1cc2cc(OCc3ccccc3)ccc2[nH]1)NO | 13.6 nM | 1500 nM | 800 nM |  | 
CC1c2ccccc2CC1C(=O)NCCCCCCC(=O)NO (stereo not given) | 732 nM |  |  |  | 
O=C(CCCCCNC(=O)c1cccc2[nH]ccc12)NO | 87.6 nM |  |  |  | 
O=C(CCCCCNC(=O)c1ccc2[nH]ccc2c1)NO | 17 nM |  |  |  | 
COc1ccc2oc(C(=O)NCCCCCCC(=O)NO)cc2c1 | 15 nM | 380 nM | 300 nM |  | 
O=C(CCCCCCNC(=O)c1cn(-c2ccccc2)c2ccccc12)NO | 3.5 nM | 2500 nM | 760 nM |  | 
O=C(CCCCCCNC(=O)c1ccc[nH]1)NO | 524 nM |  |  |  | 
O=C(CCCCCCNC(=O)c1cn(-c2ccc(F)cc2)c2ccccc12)NO | 11.8 nM | 990 nM | 380 nM |  | 
O=C(CCCCCCNC(=O)c1cc2cc(Cl)ccc2o1)NO | 15 nM | 180 nM | 190 nM |  | 
COc1ccc2[nH]c(C(=O)NCCCCCCC(=O)NO)cc2c1 | 6.5 nM | 720 nM | 1200 nM |  | 
COc1cc(OC)c2cc(C(=O)NCCCCCCC(=O)NO)[nH]c2c1 | 3.1 nM | 260 nM | 600 nM |  | 

Continued, in another order:

IC50 [1] | IC50 (HT-1080) | IC50 (MDA-MB-435) | SMILES | inhibition in vivo at 100 mg/kg (Mus musculus [2]) | inhibition in vivo at 30 mg/kg (Mus musculus [3])
39.8 nM |  |  | O=C(CCCCCNC(=O)c1c[nH]c2ccccc12)NO |  | 
56.5 nM |  |  | O=C(CCCCCCNC(=O)c1ccc2cc[nH]c2c1)NO |  | 
31.4 nM |  |  | O=C(CCCCCCNC(=O)c1ccc2[nH]ccc2c1)NO |  | 
37.5 nM |  |  | O=C(CCCCCCNC(=O)c1c[nH]c2ccccc12)NO |  | 
6.3 nM | 200 nM | 170 nM | Cc1ccc2[nH]c(C(=O)NCCCCCCC(=O)NO)cc2c1 |  | 
14.6 nM |  |  | O=C(CCCCCCNC(=O)c1cc2ccccc2[nH]1)NO | 39% | 36%
47 nM | 840 nM | 610 nM | Cn1c(C(=O)NCCCCCCC(=O)NO)cc2ccccc21 |  | 
1680 nM |  |  | O=C(CCCCCCNC(=O)c1ccccn1)NO |  | 
12.5 nM |  |  | O=C(CCCCCNC(=O)c1cc2ccccc2[nH]1)NO |  | 
17 nM | 710 nM | 320 nM | COc1cccc2cc(C(=O)NCCCCCCC(=O)NO)oc12 |  | 
29.6 nM | 760 nM | 490 nM | O=C(CCCCCCNC(=O)c1cc2ccccc2o1)NO |  | 
36.4 nM |  |  | O=C(CCCCCNC(=O)c1ccc2cc[nH]c2c1)NO |  | 
56 nM | 780 nM | 390 nM | Cn1cc(C(=O)NCCCCCCC(=O)NO)c2ccccc21 |  | 
41 nM |  |  | O=C(CCCCCCNC(=O)c1cccc2cc[nH]c12)NO |  | 
